According to patent US12678546B2, “Systems, methods, and apparatus for modeling and optimizing dialysis effects” (INNCELEREX, priority 2022, dated 2026):
Where two headings read alike, the source gives them in different places.

Tests used:
[1] = Ex-vivo simulated dialysis treatment (CRRT mimic) of bovine plasma containing creatinine; assay type: in vitro ADME; details: for Reduction in creatinine on the arterial side / Reduction in creatinine on the venous side / Total amount of creatinine in effluent, of total amount in the reservoir at time zero: at 60 minutes; for Change in creatinine concentration, venous vs. arterial side, mean over timepoints: the values are: percent change venous vs arterial; for C0 at 0 min: bovine, prior to starting ex-vivo dialysis, read-out: Starting creatinine concentration at time zero
Description: FIG. 1 illustrates an exemplary system 100 and configuration for a simulated treatment on a drug or analyte of interest. The exemplary system 100 of FIG. 1 was designed and built to mimic Continuous Renal Replacement Therapy (CRRT). CRRT is a method of slower, continuous dialysis to allow solute and fluid homeostasis. CRRT […] intermittent hemodialysis and peritoneal dialysis. It is typically performed through pump-driven venovenous extracorporeal circuits and acts as renal support through blood purification to allow solute and fluid homeostasis. CRRT is often chosen for renal replacement in hemodynamically unstable patients, and it is often employed in the intensive care unit. With a slower rate of fluid removal, CRRT theoretically causes less hypotension than other dialysis techniques. Another advantage of CRRT for these patients is that they often require a large volume of fluid administration, including medications and parenteral nutrition, and CRRT can prevent an overloaded state.
The blood or plasma is introduced to the blood side 156 of the filter. Dialysate fluid that has no drug (nor analyte of interest) is pumped through the other side 157 of the filter. This process creates a movement of the analyte of interest from the blood side 156 of the filter to the dialysate side 157 and ultimately excretion into an effluent container 107 (simulating drug removal). The pumps 110, 111, 112, 113 are set at typical clinical levels (e.g., 300-500 mL/min) for pump speed and are optimized based on performance criteria (and by trial and error) for the specific treatment simulation.
In some embodiments, the system 100 is run for 1 hour, and during this time samples (500 μL each) are taken at the respective sample points 103, 104, 105, 106 at time 0, 10, 20, 30, 40 and 60 minutes after starting the pumps 110, 111, 112, 113. These samples are assayed for the analyte of interest. These are the numerical treatment simulation results that are used in silico (described below) to scale and to predict human dialysis situations (i.e., create a virtual patient) and also to extend the predictions to many other dialysis settings (e.g., different filter types, flow rates, type of fluids pumped in, etc.) that are used in different clinical conditions.
As shown in an exemplary algorithm and schematic of the invention in FIGS. 3A-3C, the treatment simulation and in-silico modeling, simulations, and extrapolation are used to determine the effects of dialysis on a drug or analyte of interest. In blocks A and B of FIG. 3A, bovine or human plasma or blood is spiked with a drug or an exogenous analyte existing in plasma or blood. In block C, pumps, tubing, flow rates, filters, temperature, pH, dialysis or replacement solutions and apparatus are configured to mimic a type of CRRT (Continuous Renal Replacement Therapy) or IHD (Intermittent Hemodialysis). In block D, the system is run for approximately 1-2 hours. In block E, multiple samples from different ports 103, 104, 105, 106 (arterial, venous, effluent, and blood/plasma reservoir) are taken during the treatment simulation and the sampling information is recorded. In block F, the samples for the drug/analyte collected are assayed. In block G, the amount of the drug that is removed by the treatment simulation is determined, and rate and ratio parameters for the drug removal from plasma or blood are calculated.
One analyte was creatinine used as control, and the other was drug X (a drug under development). The Cybernetic Dialysis™ system 200 measures how much of drug X and how much creatinine is removed by dialysis and (referring back to FIG. 1) includes water bath 101 with shaking tray with thermal control set at 37° C. […]

[2] = as above; assay type: in vitro ADME; details: HF1400 membrane; 5 min after start of ex-vivo dialysis
[3] = AN69 M150 membrane, 10 min after start of ex-vivo dialysis
[4] = AN69 M150 membrane, 20 min after start of ex-vivo dialysis
[5] = AN69 M150 membrane, 30 min after start of ex-vivo dialysis
[6] = AN69 M150 membrane, 40 min after start of ex-vivo dialysis
[7] = AN69 M150 membrane, 60 min after start of ex-vivo dialysis
[8] = HF1400 membrane, 10 min after start of ex-vivo dialysis
[9] = HF1400 membrane, 20 min after start of ex-vivo dialysis
[10] = HF1400 membrane, 30 min after start of ex-vivo dialysis
[11] = HF1400 membrane, 40 min after start of ex-vivo dialysis
[12] = HF1400 membrane, 60 min after start of ex-vivo dialysis

With CN1CC(=O)NC1=N [creatinine] the “Creatinine concentration, Arterial” value [1, 3] was 7.088 µg/mL, the “Creatinine concentration, Venous” value [1, 3] was 5.545 µg/mL and the “Creatinine concentration, Arterial” value [1, 4] was 6.53 µg/mL. For the same compound, the “Creatinine concentration, Venous” value [1, 4] was 5.216 µg/mL, the “Creatinine concentration, Arterial” value [1, 5] was 5.191 µg/mL and the “Creatinine concentration, Venous” value [1, 5] was 4.353 µg/mL. For the same compound, the “Creatinine concentration, Arterial” value [1, 6] was 4.145 µg/mL, the “Creatinine concentration, Venous” value [1, 6] was 3.706 µg/mL and the “Creatinine concentration, Arterial” value [1, 7] was 3.444 µg/mL. The “Creatinine concentration, Venous” value [1, 7] was 2.909 µg/mL, the “Reduction in creatinine on the arterial side” value ([1]; AN69 M150 membrane) was 60% and the “Creatinine concentration, Arterial” value ([1]; AN69 M150 membrane, time point 0 min, bovine plasma) was 8.581 µg/mL. For the same compound, the “Creatinine concentration, Arterial” value [1, 8] was 8.306 µg/mL, the “Creatinine concentration, Venous” value [1, 8] was 6.355 µg/mL and the “Creatinine concentration, Arterial” value [1, 9] was 6.174 µg/mL. The “Creatinine concentration, Venous” value [1, 9] was 5.052 µg/mL, the “Creatinine concentration, Arterial” value [1, 10] was 5.857 µg/mL and the “Creatinine concentration, Venous” value [1, 10] was 4.214 µg/mL. For the same compound, the “Creatinine concentration, Arterial” value [1, 11] was 5.261 µg/mL, the “Creatinine concentration, Venous” value [1, 11] was 3.782 µg/mL and the “Creatinine concentration, Arterial” value [1, 12] was 3.82 µg/mL. For the same compound, the “Creatinine concentration, Venous” value [1, 12] was 3.18 µg/mL, the Change in creatinine concentration, venous vs. arterial side, mean over timepoints ([1]; HF1400 membrane, FIG. 7) was -25.4% and the “Reduction in creatinine on the arterial side” value ([1]; HF1400 membrane) was 56%. For the same compound, the “Reduction in creatinine on the venous side” value ([1]; HF1400 membrane) was 63%, the “Total amount of creatinine in effluent, of total amount in the reservoir at time zero” value ([1]; HF1400 membrane) was 66.3% and the “Creatinine concentration, Arterial” value ([1]; HF1400 membrane, time point 0 min, bovine plasma) was 8.581 µg/mL. The Change in creatinine concentration, venous vs. arterial side, mean over timepoints ([1]; M150 AN69 membrane, FIG. 5) was -16.8%, the “Reduction in creatinine on the venous side” value ([1]; M150 AN69 membrane) was 66% and the “Total amount of creatinine in effluent, of total amount in the reservoir at time zero” value ([1]; M150 AN69 membrane) was 68.0%. For the same compound, the “Total amount of creatinine (at time zero) remaining in the membrane cartridge and associated tubing” value ([1]; both membrane types (M150 AN69 and HF1400)) was “about 5%”, the C0 at 0 min ([1]; AN69 M150 membrane) was 8370 ng/mL and the C0 at 0 min ([1]; HF1400 membrane) was 8580 ng/mL. The “Creatinine concentration, Arterial” value [2] was 8.675 µg/mL and the “Creatinine concentration, Venous” value [2] was 5.41 µg/mL.
